Assay results as given in patent publication US11312719B2, “9-substituted amino triazolo quinazoline derivatives as adenosine receptor antagonists, pharmaceutical compositions and their use” (Merck Sharp & Dohme Corp., priority 2018, dated 2022).
pIC50: −log10 of the molar value.

What was measured:
[1] = target: human A2B receptors (Homo sapiens (Human), UniProt P29275); assay: A2B antagonism in cAMP cell-based assay (LANCE cAMP, HEK293); details: HEK293 cells expressing human A2B receptor
Summary of the method: (§1)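 HEK293 cells expressing human A2A or A2B, in HBSS/5 mM HEPES/200 nM rolipram, were preincubated with compound (0.5–10,000 nM, 0.25% DMSO) 30 min at 37° C. Adenosine was then added from 300 nM (A2A) or 600 nM (A2B) solution for 30 min.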

[2] = target: human A2A receptors (Homo sapiens (Human), UniProt P29274); assay: A2A antagonism in cAMP cell-based assay (LANCE cAMP, HEK293); details: HEK293 cells expressing human A2A receptor
Summary of the method: as §1

human A2A receptors, sequence (P29274 whole entry): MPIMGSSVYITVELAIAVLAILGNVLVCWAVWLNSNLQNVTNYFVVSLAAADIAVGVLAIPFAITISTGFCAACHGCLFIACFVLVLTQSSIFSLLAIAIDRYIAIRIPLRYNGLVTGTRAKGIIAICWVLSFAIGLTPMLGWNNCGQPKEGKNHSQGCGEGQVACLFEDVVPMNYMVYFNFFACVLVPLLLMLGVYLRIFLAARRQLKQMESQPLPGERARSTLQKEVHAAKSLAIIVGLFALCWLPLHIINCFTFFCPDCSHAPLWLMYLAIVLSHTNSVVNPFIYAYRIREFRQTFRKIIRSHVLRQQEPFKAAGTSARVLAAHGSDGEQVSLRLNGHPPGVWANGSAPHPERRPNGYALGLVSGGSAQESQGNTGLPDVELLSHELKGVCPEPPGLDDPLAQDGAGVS
human A2B receptors, sequence (P29275 whole entry): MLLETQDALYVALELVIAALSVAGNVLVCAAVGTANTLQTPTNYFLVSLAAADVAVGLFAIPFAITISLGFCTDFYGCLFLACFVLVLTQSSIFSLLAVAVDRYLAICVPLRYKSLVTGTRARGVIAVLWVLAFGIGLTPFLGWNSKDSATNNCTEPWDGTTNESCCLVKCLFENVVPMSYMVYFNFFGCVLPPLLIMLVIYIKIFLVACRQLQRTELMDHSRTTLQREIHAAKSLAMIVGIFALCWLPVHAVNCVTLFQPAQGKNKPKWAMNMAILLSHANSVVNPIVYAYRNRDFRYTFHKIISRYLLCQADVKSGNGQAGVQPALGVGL

Row | pIC50 [1] | pIC50 [2] | SMILES
1 | 7.02 | 8.59 | COc1cc2nc(N)n3nc([C@@H]4CCCN(c5cnn(C(C)C(C)O)c5)C4)nc3c2cc1F (single isomer, unassigned) [Example 187, (2S,3S or 2R,3R)-3-(4-((R)-3-(5-amino-9-fluoro-8-methoxy-[1,2,4]triazolo[1,5-c]quinazolin-2-yl)piperidin-1-yl)-1H-pyrazol-1-yl)butan-2-ol]
2 | 7.59 | 8.70 | COc1cc(F)cc2c1nc(N)n1nc([C@@H]3CCCN(c4cnn(C(C)(C)C(C)O)c4)C3)nc21 (single isomer, unassigned) [Example 245, (S or R)-3-(4-((R)-3-(5-amino-9-fluoro-7 methoxy-[1,2,4]triazolo[1,5-c]quinazolin-2-yl)piperidin-1-yl)-1H-pyrazol-1-yl)-3-methylbutan-2-ol]
3 | 5.47 | 7.02 | COc1cc2nc(N)n3nc(C4CC(C)CN(c5cn(C(C)(C)CO)nc5C)C4)nc3c2cc1F (single isomer, unassigned) [Example 169, 2-(4-((3S,5S or 3S,5R)-3-(5-amino-9-fluoro-8-methoxy-[1,2,4]triazolo[1,5-c]quinazolin-2-yl)-5-methylpiperidin-1-yl)-3-methyl-1H-pyrazol-1-yl)-2-methylpropan-1-ol]
4 | 5.48 | 7.46 | COc1cc(F)cc2c1nc(N)n1nc(C3CC(C)CN(c4cnn(C(C)C(C)O)c4C)C3)nc21 (single isomer, unassigned) [Example 222, (2R,3R or 2S,3S)-3-(4-((3S,5R or 3R,5S)-3-(5-amino-9-fluoro-7-methoxy-[1,2,4]triazolo[1,5-c]quinazolin-2-yl)-5-methylpiperidin-1-yl)-5-methyl-1H-pyrazol-1-yl)butan-2-ol]
5 | 7.85 | 9.10 | COc1cc2nc(N)n3nc(C4CC(C)CN(c5cn(C(C)(C)CO)nc5C)C4)nc3c2cc1F (single isomer, unassigned) [Example 170, 2-(4-((3S,5R or 3R,5S)-3-(5-amino-9-fluoro-8-methoxy-[1,2,4]triazolo[1,5-c]quinazolin-2-yl)-5-methylpiperidin-1-yl)-3-methyl-1H-pyrazol-1-yl)-2-methylpropan-1-ol]
6 | 7.51 | 9.22 | COc1cc(F)cc2c1nc(N)n1nc(C3CC(C)CN(c4cnn(CC(C)(C)O)c4C)C3)nc21 (single isomer, unassigned) [Example 174, 1-(4-((3S,5R or 3R,5S)-3-(5-amino-9-fluoro-7-methoxy-[1,2,4]triazolo[1,5-c]quinazolin-2-yl)-5-methylpiperidin-1-yl)-5-methyl-1H-pyrazol-1-yl)-2-methylpropan-2-ol]
7 | 7.03 | 8.19 | CC(O)C(C)n1cc(N2CCC[C@@H](c3nc4c5cc(F)cc(F)c5nc(N)n4n3)C2)cn1 (single isomer, unassigned) [Example 197, (2S,3S or 2R,3R)-3-(4-((R)-3-(5-amino-7,9-difluoro-[1,2,4]triazolo[1,5-c]quinazolin-2-yl)piperidin-1-yl)-1H-pyrazol-1-yl)butan-2-ol]
8 | 5.61 | 7.66 | COc1cc2nc(N)n3nc(C4CCC(C)N(c5cnn(C(C)C(C)O)c5)C4)nc3c2cc1F (single isomer, unassigned) [Example 238, (2S,3R or 2R,3S)-3-(4-((2R,5S or 2S,5R)-5-(5-amino-9-fluoro-8-methoxy-[1,2,4]triazolo[1,5-c]quinazolin-2-yl)-2-methylpiperidin-1-yl)-1H-pyrazol-1-yl)butan-2-ol]
9 | 6.99 | 8.60 | COc1cc2nc(N)n3nc([C@@H]4CCCN(c5cnn(C(C)C(C)O)c5)C4)nc3c2cc1F (single isomer, unassigned) [Example 200, (2S,3R or 2R,3S)-3-(4-((R)-3-(5-amino-9-fluoro-8-methoxy-[1,2,4]triazolo[1,5-c]quinazolin-2-yl)piperidin-1-yl)-1H-pyrazol-1-yl)butan-2-ol]
10 | 7.28 | 8.37 | CC(O)C(C)n1cc(N2CCC[C@@H](c3nc4c5cc(F)cc(F)c5nc(N)n4n3)C2)cn1 (single isomer, unassigned) [Example 198, (2R,3R or 2S,3S)-3-(4-((R)-3-(5-amino-7,9-difluoro-[1,2,4]triazolo[1,5-c]quinazolin-2-yl)piperidin-1-yl)-1H-pyrazol-1-yl)butan-2-ol]

Continued, compound first:

Row | SMILES | pIC50 [1] | pIC50 [2]
11 | COc1cc2nc(N)n3nc([C@@H]4CCCN(c5cnn(CCC(C)(C)O)c5)C4)nc3c2cc1F [Example 152, (R)-4-(4-(3-(5-amino-9-fluoro-8-methoxy-[1,2,4]triazolo[1,5-c]quinazolin-2-yl)piperidin-1-yl)-1H-pyrazol-1-yl)-2-methylbutan-2-ol] | 6.43 | 8.23
12 | COc1cc2nc(N)n3nc(C4CCC(C)N(c5cnn(CC6(O)CC6)c5)C4)nc3c2cc1F (single isomer, unassigned) [Example 273, 1-((4-((2R,5S or 2S,5R)-5-(5-amino-9-fluoro-8-methoxy-[1,2,4]triazolo[1,5-c]quinazolin-2-yl)-2-methylpiperidin-1-yl)-1H-pyrazol-1-yl)methyl)cyclopropan-1-ol] | 7.57 | 8.92
13 | COc1cc(F)cc2c1nc(N)n1nc(C3CCC(C)N(c4cnn(C(C)(C)C(C)O)c4)C3)nc21 (single isomer, unassigned) [Example 269, (S or R)-3-(4-((2S,5R or 2R,5S)-5-(5-amino-9-fluoro-7-methoxy-[1,2,4]triazolo[1,5-c]quinazolin-2-yl)-2-methylpiperidin-1-yl)-1H-pyrazol-1-yl)-3-methylbutan-2-ol] | 8.19 | 8.92
14 | COc1cc2nc(N)n3nc(C4CCC(C)N(c5cnn(CC(C)(C)N)c5)C4)nc3c2cc1F (single isomer, unassigned) [Example 262, 2-((3R,6S or 3S,6R)-1-(1-(2-amino-2-methylpropyl)-1H-pyrazol-4-yl)-6-methylpiperidin-3-yl)-9-fluoro-8-methoxy-[1,2,4]triazolo[1,5-c]quinazolin-5-amine] | 7.62 | 8.66
15 | COc1cc(F)cc2c1nc(N)n1nc(C3CCC(C)N(c4cnn(C(C)(C)C(C)O)c4)C3)nc21 (single isomer, unassigned) [Example 271, (S or R)-3-(4-((2R,5S or 2S,5R)-5-(5-amino-9-fluoro-7-methoxy-[1,2,4]triazolo[1,5-c]quinazolin-2-yl)-2-methylpiperidin-1-yl)-1H-pyrazol-1-yl)-3-methylbutan-2-ol] | 6.62 | 7.67
16 | COc1cc(F)cc2c1nc(N)n1nc(C3CCC(C)N(c4cnn(C(C)(C)C(C)O)c4)C3)nc21 (single isomer, unassigned) [Example 270, (R or S)-3-(4-((2R,5S or 2S,5R)-5-(5-amino-9-fluoro-7-methoxy-[1,2,4]triazolo[1,5-c]quinazolin-2-yl)-2-methylpiperidin-1-yl)-1H-pyrazol-1-yl)-3-methylbutan-2-ol] | 7.52 | 8.28
17 | COc1cc2nc(N)n3nc(C4CCC(C)N(c5cnn(C(C)(CO)CO)c5)C4)nc3c2cc1F (single isomer, unassigned) [Example 251, 2-(4-((2R,5S or 2S,5R)-5-(5-amino-9-fluoro-8-methoxy-[1,2,4]triazolo[1,5-c]quinazolin-2-yl)-2-methylpiperidin-1-yl)-1H-pyrazol-1-yl)-2-methylpropane-1,3-diol] | 6.41 | 7.40
